# In article PMC3350483, “Versatile Toolbox for High Throughput Biochemical and Functional Studies with Fluorescent Fusion Proteins” (PLoS ONE, 2012):
# What was measured:
# [1] = system: GFP-Cbx1; assay: In vitro histone-tail peptide binding assay on GFP-multiTrap; parameters: species or system mouse; settings: for Binding of GFP-Cbx1 to histone-tail peptide (binding ratios, Figure 2A): 0.15 µM TAMRA-labeled peptide per well, RT 20 min
# Protocol: In the next assay we determined whether this approach is also feasible to quantify binding affinities between GFP-proteins and peptides or DNA. First, we analyzed histone-tail peptide binding specificities of the chromobox homolog 1, Cbx1, fused with a N-terminal GFP-tag using the GFP-multiTrap. GFP-Cbx1 was purified from mammalian cell lysate, as described above, and the bound protein was incubated with TAMRA-labeled histone-tail peptides. A set of 20 different histone-tail peptides (Table 1) was used in technical triplicates in parallel and GFP served as negative control (GFP data is not shown). After removal of unbound substrate the amounts of protein and histone-tail peptide were determined by fluorescence intensity measurements using a micro plate reader. Binding ratios were calculated by dividing the concentration of bound histone-tail peptide by the concentration of GFP fusion (Figure 2A). […] In addition to fluorescent quantification via a micro plate reader, we scanned the TAMRA signals using a Typhoon scanner (Figure 2B). […] These differences could result from different sensitivities of both methods. […] We incubated GFP-Cbx1 with TAMRA-labeled H3K9me3 in parallel with either biotinylated H3K9me3 or H3K9ac histone-tail peptides. […] In contrast, we could not detect a significant difference in binding ratios between di- and trimethylated H3K9 histone tail peptides using a micro plate reader (Figure 2A). One explanation could be the use of different expression systems. While the binding ratios for the HP1β chromo domain were determined using bacterially expressed protein we used a fluorescent fusion protein derived from mammalian cells. […] To determine the binding affinity of GFP-Cbx1 to H3K9me3, we varied the input amount of histone-tail peptide. We plotted the amount of bound histone-tail peptide as a function of total peptide and fitted the values using GraphPad Prism and nonlinear regression (Figure 2D). The amount of bound H3K9me3 histone-tail peptide increases linearly and saturates at approximately 500 nM of input peptide. […] Here, the input amount of protein/substrate was measured in solution, whereas the bound fraction represents one value on the 96-well surface.
# For purification, 100 µL or 50 µL precleared cellular lysate for full-area plates or half-area plates, respectively, was added per well and incubated for 2 hours at 4°C on a GFP-multiTrap plate by continuous shaking. After removing the supernatant, wells were washed twice with 100 µL of washing buffer (WB; 20 mM Tris-HCl pH 7.5, 100–300 mM NaCl, 0.5 mM EDTA) and 100 µL of IP or dilution buffer was added for measurement. The amounts of bound protein were determined by fluorescence intensity measurements with a Tecan Infinite M1000 plate reader (Tecan, Austria). Wavelengths for excitation and emission of GFP are 490±10 nm and 511±10 nm, for RFP are 586±5 nm and 608±10 nm and for YFP 525±5 nm and 538±5 nm, respectively. The concentration of proteins was calculated using calibration curves that were determined by measuring the fluorescence signal of known concentrations of purified GFP, RFP and YFP. […] Bound proteins were eluted with 300 mM Glycin pH 2.5 and subsequently buffered with 1 M Tris pH 7.5. Elution fractions were added to SDS-containing sample buffer (referred to as Bound (B)). Bound proteins were visualized by immunoblotting using the anti-GFP mouse monoclonal antibody (Roche, Germany).
# The in vitro histone-tail binding assay was performed as described previously. After one-step purification of GFP fusion proteins the wells were blocked with 100 µL 3% milk solved in TBS-T (0.075% Tween) for 30 minutes at 4°C on a plate vortex, shaking gently. After blocking, the wells were equilibrated in 50 µL IP buffer supplemented with 0.05% Tween. […]
# [2] = target: HP1β chromo domain; settings: bacterially expressed protein; ref [11], [12]; read-out: binding affinities; cited from earlier work
# [3] = system: GFP-Cbx1; assay: Competition assay between TAMRA-labeled H3K9me3 and biotinylated histone-tail peptides; format: binding, mouse; settings: biotinylated peptide added in parallel; Figure 2C; three independent experiments; **P<0.003
# Protocol: In the next assay we determined whether this approach is also feasible to quantify binding affinities between GFP-proteins and peptides or DNA. First, we analyzed histone-tail peptide binding specificities of the chromobox homolog 1, Cbx1, fused with a N-terminal GFP-tag using the GFP-multiTrap. GFP-Cbx1 was purified from mammalian cell lysate, as described above, and the bound protein was incubated with TAMRA-labeled histone-tail peptides. A set of 20 different histone-tail peptides (Table 1) was used in technical triplicates in parallel and GFP served as negative control (GFP data is not shown). After removal of unbound substrate the amounts of protein and histone-tail peptide were determined by fluorescence intensity measurements using a micro plate reader. Binding ratios were calculated by dividing the concentration of bound histone-tail peptide by the concentration of GFP fusion (Figure 2A). […] In addition to fluorescent quantification via a micro plate reader, we scanned the TAMRA signals using a Typhoon scanner (Figure 2B). […] In contrast, we could not detect a significant difference in binding ratios between di- and trimethylated H3K9 histone tail peptides using a micro plate reader (Figure 2A). […] While the binding ratios for the HP1β chromo domain were determined using bacterially expressed protein we used a fluorescent fusion protein derived from mammalian cells. […]
# [4] = target: GFP-PBD (green fluorescent PCNA-binding domain of Dnmt1); assay: GFP-multiTrap plate binding assay, fluorescence read-out; GFP fusion held on the GFP-multiTrap plate, blocked with 3% milk, incubated with HEK293T cellular extract holding the RFP fusion for 30 min at RT; molar ratio of bound RFP fusion over GFP fusion by plate reader
# [5] = target: GFP-Cbx1 (chromobox homolog 1 fused with an N-terminal GFP-tag) (mouse) (UniProt P83917); assay: GFP-multiTrap plate binding assay, fluorescence read-out; GFP fusion held on the GFP-multiTrap 96-well plate, blocked with 3% milk; 0.15 µM TAMRA-labeled histone-tail peptide, 20 min at RT, IP buffer (20 mM Tris-HCl pH 7.5, 150 mM NaCl, 0.5 mM EDTA) with 0.05% Tween; ratio of bound peptide over GFP fusion by plate reader
# [6] = target: Cbx1 (UniProt P83917); assay: TAMRA-peptide binding to GFP-multiTrap-immobilised GFP-Cbx1; settings: reference: H3K9me3 peptide; sites S10
# [7] = plate reader, three independent experiments
# UniProt P83917, sequence (P83917 whole entry, the tested form may be a part): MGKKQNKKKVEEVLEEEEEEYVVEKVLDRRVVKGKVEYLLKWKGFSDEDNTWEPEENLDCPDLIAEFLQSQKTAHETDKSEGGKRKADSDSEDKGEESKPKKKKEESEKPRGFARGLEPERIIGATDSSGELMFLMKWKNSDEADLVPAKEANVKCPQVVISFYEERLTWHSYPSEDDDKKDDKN
substance,measurement,setting,value
"ARTKQTAR X2 S TGGKAPRKQLK [H3K9me2, TAMRA-labeled histone H3 tail peptide, dimethylated Lysine 9]","Binding of GFP-Cbx1 to histone-tail peptide (binding ratios, Figure 2A)",[1]; [7],preferentially binds
same,TAMRA signals of bound peptide by Typhoon scanner (Figure 2B),[1]; fluorescence scanner,detected TAMRA signals
same,Kd,[2],7 µM
biotinylated H3K9ac: biotinylated H3K9ac histone-tail peptide used as competitor,Effect of competitor on binding of Cbx1 to TAMRA-labeled H3K9me3,[3],did not alter
"ARTKQTAR X3 Z2 TGGKAPRKQLK [H3K9me3S10p, TAMRA-labeled H3 tail peptide, trimethylated Lysine 9 and phosphorylated Serine 10]","Binding of GFP-Cbx1 to histone-tail peptide (binding ratios, Figure 2A)",[1]; [7],prevents binding
"ARTKQTAR X3 S TGGKAPRKQLK [H3K9me3, TAMRA-labeled histone H3 tail peptide, trimethylated Lysine 9]","Binding of GFP-Cbx1 to histone-tail peptide (binding ratios, Figure 2A)",[1]; [7],preferentially binds
same,TAMRA signals of bound peptide by Typhoon scanner (Figure 2B),[1]; fluorescence scanner,detected TAMRA signals
same,Preference in binding by fluorescence scanner,"[1]; fluorescence scanner, no difference seen with micro plate reader",preference for tri- over dimethylated H3K9
same,Input peptide at which bound histone-tail peptide saturates,"[1]; varied input of TAMRA-labeled peptide, Figure 2D, nonlinear regression, three independent experiments",approximately 500 nM
same,Kd,[2],2.5 µM
mRFP,relative binding ratio (substrate/GFP fusion),[4],0.005
"H3 (1–20) histone-tail peptide, TAMRA-labeled",relative binding ratio (substrate/GFP fusion),[5],0.0772
"ART K QTARKSTGGKAPRKQLK [H3 (1–20), TAMRA-labeled unmodified histone H3 tail peptide, residues 1–20]",Binding of Cbx1 with varied input amount of peptide (Figure 2D),"[1]; varied input of TAMRA-labeled peptide, plate reader, two independent experiments for H3",could not detect any binding
"H3K9me3 histone-tail peptide, TAMRA-labeled",relative binding ratio (substrate/GFP fusion),[5],0.572
histone H3 1-20 (from UniProt P68431) H3K9me3S10p peptide,binding against the reference,[6],lost
biotinylated H3K9me3: biotinylated H3K9me3 histone-tail peptide used as competitor,Effect of competitor on binding of Cbx1 to TAMRA-labeled H3K9me3,[3],significantly decreased
